Experimental data: patent US20170298056A1, “SMALL MOLECULE INHIBITORS OF HIV-1 ENTRY AND METHODS OF USE THEREOF” (Dana-Farber Cancer Institute, Inc., priority 2014, published 2017)

Columns and labels:
Cf2Th-CD4/CCR5 cells = assay: Viability assay (CellTiterGlo), CD4/CCR5-expressing target cells; assay type: cell-based; settings: read-out: half-maximal cytotoxic concentration (CC50)
Experimental: Viability Assay. As part of the secondary screen, cells were incubated for ˜20 hours in 384-well plates in a final volume of 45 μl growth medium at 37° C. The plate was equilibrated to room temperature, 15 μl of CellTiterGlo (Promega) was added to each well and luminescence was measured as described above. The viability assay with 18A was done in parallel to the viral infection assay for the same length of time. 18A was diluted using an HP D300 Digital Dispenser in a 96-well B&W isoplate and cells were added. After incubation of 26-30 hours (Cf2Th cells) or 40-44 hours (PBMC). 30 μl (Cf2Th cells) or 100 μl (PBMC) of CellTiterGlo was added and luminescence was measured as described above.

HIV-1HXBc2 = assay: Viral infection assay, CXCR4-tropic virus, Cf2Th-CD4/CXCR4 cells; assay type: cell-based; settings: HIV-1HXBc2, Cf2Th cells expressing CD4 and CXCR4
HIV-1KB9 = assay: Viral infection assay, dual-tropic isolate; assay type: cell-based; settings: dual-tropic HIV-1KB9
Experimental: Production of recombinant HIV-1 expressing luciferase. 293T cells were cotransfected with an Env expression plasmid, a firefly luciferase-expressing lentiviral vector (pHIVcc2.luc) and an HIV-1-based packaging plasmid (psPAX2, cat #11348, NIH AIDS Research and Reference Reagent Program) at a ratio of 1:6:3 using Effectene (Qiagen, Germantown, Md.). After 48 hours, the supernatant was collected, buffered with 50 mM Hepes pH 7.4 (final concentration) and centrifuged for 5 minutes at 750×g and 4° C. The virus-containing supernatant was used directly or frozen at −80° C.
Viral infection assay. Each test compound was serially diluted in DMSO in a 96-well B&W isoplate (PerkinElmer, Boston, Mass.) using an HP D300 Digital Dispenser, to a final volume of 450 nl. DMSO was used as a control. Viruses pseudotyped with a specific Env were added to each well and incubated briefly at room temperature. […] The activity of the firefly luciferase, which was used as a reporter protein in the system, was measured with a Centro LB 960 luminometer (Berthold Technologies, Oak Ridge, Tenn.). One hundred microliters of assay buffer (15 mM MgSO4, 15 mM KH2PO4/K2HPO4 pH 7.8, 1 mM ATP and 1 mM DTT) was injected to each well, followed by a 50 μl injection of 1 mM Dluciferin potassium salt (BD Pharmingen, San Jose, Calif.); luminescence was measured for 2 sec. […]

[1] = tested on: HIV-1JR-FLΔCT Env trimer (gp41 HR1); assay: CD4-induced gp41 HR1 exposure, C34-Ig binding (flow cytometry); settings: 100 μM 18A prior to sCD4 addition; approx. 37% with sCD4 alone
Experimental: Flow cytometry. […] After 48-72 hours, cells were detached with 5 mM EDTA/PBS and between 0.5-1 million cells were briefly incubated with various concentrations of 18A and then with or without the indicated concentrations of sCD4. C34-Ig (at a final concentration of 20 μg/ml) or a specified antibody (at final concentration of 1 μg/ml) was added to the cells. […] Cells were washed twice and analyzed with a BD FACSCanto II flow cytometer (BD Biosciences). For analysis of resistant mutants (FIG. 5e-g), the measurements were normalized for the level of sCD4 binding of each mutant, and the response of each mutant was further normalized to that of the wild-type HIV-1JR-FL E168K+N188AΔCT Env (herein designated WTKA). […] The sCD4 IC50/sCD4 binding ratio (FIGS. 4c and e) was calculated as follows. Binding of sCD4 to different envelope mutants was measured by flow cytometry and normalized first to 2G12 binding to account for potentially different Env expression levels, and then to sCD4 binding to the wild-type HIV-1JR-FL Env. The IC50 of sCD4 for inhibition of virus infection by each mutant Env was divided by the normalized sCD4 binding to Env-expressing cells to calculate the sCD4 IC50/sCD4 binding value.

O=C(N/N=C/c1ccc(O)cc1)Nc1cccc2nsnc12 [Compound 18A]
CC50 (Cf2Th-CD4/CCR5 cells): 44 µM | IC50 (HIV-1HXBc2): ~25 µM | inhibition of infection (HIV-1KB9): relatively resistant to inhibition | cells binding C34-Ig [1]: 4.7%
